As a reminder, the IC50 is the point on the concentration scale where inhibition reaches its midpoint. For orientation: pKi means the negative decadic logarithm of the Ki, by convention in mol/L.

Data on six compounds can be found in patent publication US8470803B2, “Boron-containing small molecules” (Anacor Pharmaceuticals, Inc., priority 2008, dated 2013).

One experiment concerns IL-23. Briefly: Cytokine assay: IL-23 release, IFN-g + LPS induced THP-1 cells. Format: cell-based. The settings on record: Homo sapiens, 100 ng/ml IFN-g + 1 mg/ml LPS, 48 hours, ELISA. As to the method:
(§1) Frozen human peripheral blood mononucleocytes (PBMC) were thawed and centrifuged. Cryopreservation media was aspirated off of the cell pellet, and the cells were resuspended in fresh culture media (CM) comprising RPMI 1640 and 10% FBS in 96 well plates. Test article was dissolved in DMSO to form a 10 mM sample (DMSO, 100%). The 10 mM samples were diluted to 100 μM in CM (DMSO, 1%), then further diluted to 10, 1, 0.1, 0.01 μM in 200 μL of CM (n=3). Inducer (1 μg/mL) LPS for TNF-α or 20 ug/mL PHA for IFNγ, IL-2, IL-4, IL-5 and IL-10. IL-23 was induced with 100 ng/ml IFN-g+[…], using THP-1 cells. Vehicle (1% DMSO) was used as a control for this experiment. Vehicle without inducer was used as a negative control. Cells were incubated at 37° C., 5% CO2. Supernatants were extracted at 24 hours (for TNF-α, IL-2 and IFNγ) and 48 hours (for IL-4, IL-5, IL-10 and IL-23), and stored at −20° C. Supernatants were thawed and assayed for cytokine expression using the fluorochrome-labeled cytokine-specific beads and a BD FACSArray™. IL-23 was assayed using a commercial ELISA kit (R&D Systems).
For orientation: An ELISA detects its analyte on a solid surface through an enzyme-linked reagent.

Experiment [1] concerns T1, PDE4 partially purified from human U-937 myeloid leukemia cells.
T1 construct: PDE4 partially purified from human U-937 myeloid leukemia cells was used
The experiment can be described thus: PDE4 assay ([3H]cAMP hydrolysis). Type of experiment: biochemical. The settings on record: PDE4 from U-937 cells, 1 mM cAMP, pH 7.5, 20 minutes at 25° C. Here is the method: PDE4 partially purified from human U-937 myeloid leukemia cells was used. Test article and/or vehicle was incubated with 0.2 mg enzyme and 1 mM cAMP containing 0.01 mM [3H]cAMP in Tris buffer pH 7.5 for 20 minutes at 25° C. The reaction was terminated by boiling for 2 minutes and the resulting AMP is converted to adenosine by addition of 10 mg/ml snake venom nucleotidase and further incubation at 37° C. for 10 minutes. Unhydrolyzed cAMP is bound to AG1-X2 resin, and remaining [3H]Adenosine in the aqueous phase is quantitated by scintillation counting.

The test system of the next experiment is IL-γ. The experiment can be described thus: Cytokine assay: IFNγ (IL-γ [sic]) release, PHA-induced PBMC. Type of experiment: cell-based. The settings on record: human PBMC, 20 ug/mL PHA, 24 hours. Here is the method:
as §1

Another experiment relates to IL-2. The experiment can be described thus: Cytokine assay: IL-2 release, PHA-induced PBMC. Type of experiment: cell-based. The settings on record: human PBMC, 20 ug/mL PHA, 24 hours. As to the method:
as §1

A further experiment concerns IL-10. Briefly: Cytokine assay: IL-10 release, PHA-induced PBMC. The settings on record: human PBMC, 20 ug/mL PHA, 48 hours. Type of experiment: cell-based. Here is the method: as §1
Another experiment has as its system IL-4. Briefly: Cytokine assay: IL-4 release, PHA-induced PBMC. Type of experiment: cell-based. The settings on record: human PBMC, 20 ug/mL PHA, 48 hours. Here is the method:
as §1

The next experiment concerns IL-5. Briefly: Cytokine assay: IL-5 release, PHA-induced PBMC. Type of experiment: cell-based. The settings on record: human PBMC, 20 ug/mL PHA, 48 hours. Here is the method:
as §1

The next experiment deals with TNF-α. The experiment can be described thus: Cytokine assay: TNF-α release, LPS-induced PBMC. Type of experiment: cell-based. The settings on record: human PBMC, 1 μg/mL LPS, supernatant at 24 hours. As to the method:
as §1

The next experiment concerns the target K-ATP channel. The settings on record: K-ATP channel (SUR) binding; cited from earlier work.

Turning to `COc1nc(N(C(=O)OC(C)(C)C)c2ccc3c(c2)COB3O)ccc1C#N` [C4, tert-Butyl 5-cyano-6-methoxypyridin-2-yl(1-hydroxy-1,3-dihydrobenzo[c][1,2]oxaborol-5-yl)carbamate], the IC50 in the experiment with IL-23 is 5770 nM; in [1], 180 nM; with IL-γ it was 370 nM; in the experiment on IL-2, 220 nM; in the experiment on IL-10 it was 6000 nM; with IL-4, 33000 nM. Moreover, the half-maximal inhibitory concentration (IC50) in the experiment with IL-5 stood at 400 nM; in the experiment on TNF-α, 360 nM.

With `COc1nc(Nc2ccc3c(c2)COB3O)ccc1C#N` [C5, 6-(1-hydroxy-1,3-dihydrobenzo[c][1,2]oxaborol-5-ylamino)-2-methoxynicotinonitrile], the IC50 with IL-23 came to 2740 nM; in experiment [1], 340 nM; in the experiment with IL-γ, 300 nM; in the experiment with IL-2, 210 nM; in the experiment with IL-10 it was 3700 nM; in the experiment on IL-4, 23000 nM. Besides, the values for the IC50 in the experiment with IL-5 and in the experiment with TNF-α were 700 nM and 260 nM, respectively.

In the case of `CC(C)(C)OC(=O)N(c1ccc(C#N)cc1)c1ccc2c(c1)COB2O` [C1, 5-[N-tert-Butoxycarbonyl-(4-cyanophenylamino)]-1,3-dihydro-1-hydroxybenzoxaborole], the concentration for half-maximal inhibition (IC50) was 2750 nM in experiment [1]; 620 nM with IL-γ; 960 nM in the experiment on IL-2; 5590 nM in the experiment with IL-10; more than 10000 nM in the experiment on IL-4; 2420 nM in the experiment on IL-5. The compound further came in with an IC50 in the experiment with TNF-α of 1100 nM.

As to `N#Cc1ccc(Nc2ccc3c(c2)COB3O)cc1` [C2, 5-(4-Cyanophenylamino)-1,3-dihydro-1-hydroxybenzoxaborole], the IC50 was 7350 nM in the experiment with IL-23; 414 nM in [1]; 1510 nM in the experiment with IL-γ; 130 nM with IL-2; more than 10000 nM with IL-10; more than 10000 nM with IL-4. The IC50 in the experiment on IL-5 was determined as 6830 nM; with TNF-α it was 1080 nM.

Consider `CC1=NS(=O)(=O)c2cc(Cl)ccc2N1` [diazoxide], for which the pKi on K-ATP channel is reported as 3.8.

Turning to `CN(c1ccc(C#N)cc1)c1ccc2c(c1)COB2O` [C3, 5-[N-(4-Cyanophenyl)-N-methylamino]-1,3-dihydro-1-hydroxybenzoxaborole], the IC50 is 387 nM in experiment [1]; 2000 nM in the experiment with IL-γ; 880 nM in the experiment with IL-2; 3100 nM in the experiment on IL-10; more than 10000 nM with IL-4; 3500 nM with IL-5. In addition, the IC50 with TNF-α came out at 1300 nM.
